This passage reports viability, T/C and IC50 results from PubChem BioAssay AID1963973 (Molecular Pharmacology Branch, DTP, NCI, 2024).

The structures appear in SMILES notation. Values joined by “and” are separate entries in the source; they are usually repeats but may differ in a detail not shown here. Identical values can stand only once.

This experiment relates to 883617-216-R-J1-PDC tumor spheroids, viability. In words: Anticancer human tumor 883617-216-R-J1-PDC patient-derived bladder carcinoma cell line growth inhibition [PI3K]. To be noted: spheroids with HUVEC and MSC; for viability, T/C: stronger effect = lower value. The source says: Combinatorial screen of targeted agents with the PI3K inhibitors inavolisib, alpelisib, duvelisib, and copanlisib in multi-cell type tumor spheroids
A high-throughput screen of multi-cell type tumor spheroids was designed to identify active combinations of targeted small molecules and PI3K pathway inhibitors. Complex spheroids include a stromal component modeled by human endothelial cells (HUVEC) and fibroblasts modeled by human mesenchymal stem cells (MSCs). The concentration ranges selected for each drug and investigational agent were based upon clinically achievable concentrations if the clinical Cmax of the agent was known.
Compounds. The drugs and investigational agents: inavolisib (NSC800729), alpelisib (NSC765974), duvelisib (NSC772469), copanlisib (NSC816437), ipatasertib (NSC767898), afuresertib (NSC778305), talazoparib (NSC767125), sapanisertib (NSC764658), selumetinib (NSC741078), tovorafenib (DAY101, NSC766906), vemurafenib (NSC761431), ravoxertinib (NSC781343), sotorasib (NSC818433), MRTX1133 (NSC 836407), abemaciclib (NSC 768073), palbociclib (NSC758247), venetoclax (NSC 766270), SY5609 (NSC837396), enzalutamide (NSC755605), and darolutamide (NSC825331), were obtained from the National Cancer Institute (NCI) Developmental Therapeutics Program Chemical Repository. The FDA-approved anticancer drug set is available from the NCI Developmental Therapeutics Program. […] The stock solutions were prepared in dimethyl sulfoxide (DMSO, Sigma-Aldrich, St. Louis, MO, cat. D2650) at 800-fold the tested concentration and stored at -70 degrees C prior to their use. All drugs and investigational agents were tested over a range starting from a high concentration at or near the clinical Cmax and decreasing in half-log increments. If the clinical Cmax for an agent had not been determined, the highest concentration tested was 10 microM.
Cell Culture. All cells were maintained in an incubator at 37 degrees C and 5% CO2 with 95% humidity. The PDC lines were cultured according to standard operating procedures established by the NCI PDMR (https://pdmr.cancer.gov/sops/default.htm). All PDCs were thawed and cultured in Matrigel-coated flasks prepared with a working solution of 1X Ham's F-12 nutrient mix, without supplementation (Invitrogen, Waltham, MA, cat. 11765054), 100 U/mL penicillin-streptomycin (Invitrogen, cat. 15140122), and 2.5% Matrigel (Corning Inc., Corning, NY, cat. 354248) for the first three passages. The 354836-022-R-J1-PDC, 475296-252-R-J1-PDC, and 997726-040-R-J2-PDC lines were cultured in 6A media, which includes advanced DMEM/F-12 (Thermo Fisher Scientific, cat. 12634028), 10 mM HEPES (Thermo Fisher Scientific, cat. 15630080), 1X GlutaMAX supplement (Thermo Fisher Scientific, cat. 35050061), 0.1 mg/mL primocin (InvivoGen, San Diego, CA, cat. ant-pm-2), 10% defined fetal bovine serum, heat inactivated (HyClone Laboratories Inc., Logan, UT, cat. SH30070.03HI), 50% L-WRN conditioned media (ATCC, cat. CRL-3276), 1.25 mM N-Acetyl-L-cysteine (Sigma-Aldrich, cat. A9165), 10 mM nicotinamide (Sigma-Aldrich, cat. N0636), 1X B-27 supplement (Thermo Fisher Scientific, cat. 17504044), 1X N-2 supplement (Thermo Fisher Scientific, cat. 17502048), and 10 microM Y-27632 dihydrochloride (Tocris Bioscience, Bristol, United Kingdom, cat. 1254). The 624824-186-R-J2-PDC line was cultured in 6C/Colon 1B media, which includes all 6A media components plus 50 ng/mL human EGF recombinant protein (Thermo Fisher Scientific, cat. PHG0311). […]

[1] abbreviates: compound alone, run of 04/24/2023.
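Note: spheroids exposed to agents for 7 days before the viability read.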

Take `CC(=O)c1c(C)c2cnc(Nc3ccc(N4CCNCC4)cn3)nc2n(C2CCCC2)c1=O`: the viability, T/C (commonly the result in the treated group divided by that in the control group, in per cent) by setting is: (compound 0.000316 µM) 109% [middle of 4 runs]; (compound 0.001 µM) 91.3% [middle of 4 runs]; (compound 0.00316 µM) 76.6% [middle of 4 runs]; (compound 0.01 µM) 87.7% [middle of 4 runs]; (compound 0.0316 µM) 71.2% [middle of 4 runs]; (compound 0.1 µM) 47.9% [middle of 4 runs]. Further, the IC50 (in general, the point on the concentration scale where inhibition reaches its midpoint) (curve of compound) was 0.0985 µM and > 0.1 µM and 0.0797 µM.
On to `CC(C)NCC(C(=O)N1CCN(c2ncnc3c2C(C)CC3O)CC1)c1ccc(Cl)cc1` (stereo not given), for which the viability, T/C is 93.7% [middle of 4 runs] (compound 0.0316 µM); 77.3% [middle of 4 runs] (compound 0.1 µM); 68.3% [middle of 4 runs] (compound 0.316 µM); 40.5% [middle of 4 runs] (compound 1 µM); 17.1% [middle of 4 runs] (compound 3.16 µM); 7.67% [middle of 4 runs] (compound 10 µM). Also, the IC50 (curve of compound) was 591 nM [middle of 4 runs].
With `CC(C)n1nc(-c2ccc3oc(N)nc3c2)c2c(N)ncnc21`, the viability, T/C is 95.2% [middle of 4 runs] (compound 0.000316 µM); 90.4% [middle of 4 runs] (compound 0.001 µM); 87.5% [middle of 4 runs] (compound 0.00316 µM); 73% [middle of 4 runs] (compound 0.01 µM); 47.2% [middle of 4 runs] (compound 0.0316 µM); 20.2% [middle of 4 runs] (compound 0.1 µM). Under “curve of compound”, the IC50 is 27.6 nM [middle of 4 runs].
`CC(Nc1ccc2c(c1)OCCn1cc(N3C(=O)OCC3C(F)F)nc1-2)C(N)=O` (stereo not given): the viability, T/C is 96.5% [middle of 8 runs] (compound 0.00316 µM); 91.7% [middle of 8 runs] (compound 0.01 µM); 71.5% [middle of 8 runs] (compound 0.0316 µM); 40.2% [middle of 8 runs] (compound 0.1 µM); 29.8% [middle of 8 runs] (compound 0.316 µM); 18.9% [middle of 8 runs] (compound 1 µM). For the same molecule, the 50% inhibitory concentration (IC50) under setting [1] is 72 nM [middle of 8 runs].
With `CC(Nc1ncnc2nc[nH]c12)c1cc2cccc(Cl)c2c(=O)n1-c1ccccc1` (stereo not given), the viability, T/C reads like this: (compound 0.0316 µM) 98.3% [middle of 8 runs]; (compound 0.1 µM) 95.9% [middle of 8 runs]; (compound 0.316 µM) 94.8% [middle of 8 runs]; (compound 1 µM) 85.6% [middle of 8 runs]; (compound 3.16 µM) 66.2% [middle of 8 runs]; (compound 10 µM) 50.7% [middle of 8 runs].
`CC1(C)CCC(CN2CCN(c3ccc(C(=O)NS(=O)(=O)c4ccc(NCC5CCOCC5)c([N+](=O)[O-])c4)c(Oc4cnc5[nH]ccc5c4)c3)CC2)=C(c2ccc(Cl)cc2)C1`: the viability, T/C is 105% [middle of 4 runs] (compound 0.0316 µM), 94.3% [middle of 4 runs] (compound 1 µM) and 92.8% [middle of 4 runs] (compound 3.16 µM). The IC50 (curve of compound) is > 10 µM and 5.36 µM and 5.66 µM.
Take `CCCS(=O)(=O)Nc1ccc(F)c(C(=O)c2c[nH]c3ncc(-c4ccc(Cl)cc4)cc23)c1F`: the viability, T/C (compound 0.0316 µM) is 99.5% [middle of 4 runs]; the viability, T/C (compound 0.1 µM) was 98.2% [middle of 4 runs]; the viability, T/C (compound 0.316 µM) is 97% [middle of 4 runs]; the viability, T/C (compound 3.16 µM) is 73.8% [middle of 4 runs]; the viability, T/C (compound 10 µM) was 9.39% [middle of 4 runs]. Moreover, the concentration for half-maximal inhibition (IC50) (curve of compound) is 4.76 µM [middle of 4 runs].
Take `CCN1CCN(Cc2ccc(Nc3ncc(F)c(-c4cc(F)c5nc(C)n(C(C)C)c5c4)n3)nc2)CC1`: the viability, T/C is 92% [middle of 4 runs] (compound 0.00316 µM); 78.9% [middle of 4 runs] (compound 0.01 µM); 75.5% [middle of 4 runs] (compound 0.0316 µM); 59% [middle of 4 runs] (compound 0.1 µM); 56.6% [middle of 4 runs] (compound 0.316 µM); 47.2% [middle of 4 runs] (compound 1 µM).
Consider `CNC(=O)c1ccc(N2C(=S)N(c3ccc(C#N)c(C(F)(F)F)c3)C(=O)C2(C)C)cc1F`, for which the viability, T/C (compound 0.0316 µM) is 94.7% [middle of 4 runs]; the viability, T/C (compound 0.316 µM) is 99.7% [middle of 4 runs]; the viability, T/C (compound 1 µM) is 98.9% [middle of 4 runs]; the viability, T/C (compound 3.16 µM) is 101% [middle of 4 runs]. The IC50 (curve of compound) is > 10 µM.
On to `COc1c(OCCCN2CCOCC2)ccc2c3n(c(=NC(=O)c4cnc(N)nc4)nc12)CCN3`, for which the viability, T/C was 93.8% [middle of 8 runs] (compound 0.00316 µM); 70.5% [middle of 8 runs] (compound 0.01 µM); 40% [middle of 8 runs] (compound 0.0316 µM); 15.4% [middle of 8 runs] (compound 0.1 µM); 4.37% [middle of 7 runs] (compound 0.316 µM); 3.24% [middle of 8 runs] (compound 1 µM). For the same molecule, for the setting “compound alone, run of 04/25/2023”, the IC50 is 20.7 nM [middle of 8 runs].
Regarding `Cc1nc(NC(=O)N2CCCC2C(N)=O)sc1-c1ccnc(C(C)(C)C(F)(F)F)c1` (stereo not given), the viability, T/C is 92.1% [middle of 8 runs] (compound 0.0316 µM); 74.7% [middle of 8 runs] (compound 0.1 µM); 49.1% [middle of 8 runs] (compound 0.316 µM); 28.3% [middle of 8 runs] (compound 1 µM); 12.5% [middle of 8 runs] (compound 3.16 µM); 7.52% [middle of 8 runs] (compound 10 µM). In addition, under setting [1], the half-inhibitory concentration (IC50) was 316 nM [middle of 8 runs].
In the case of `Cn1cnc2c(F)c(Nc3ccc(Br)cc3Cl)c(C(=O)NOCCO)cc21`, the viability, T/C reads like this: (compound 0.00949 µM) 73.6% [middle of 4 runs]; (compound 0.03 µM) 54.3% [middle of 4 runs]; (compound 0.0949 µM) 43.7% [middle of 4 runs]; (compound 0.3 µM) 32.2% [middle of 4 runs]; (compound 0.949 µM) 34.6% [middle of 4 runs]; (compound 3 µM) 20.2% [middle of 4 runs]. The half-inhibitory concentration (IC50) (curve of compound) was 52.5 nM [middle of 4 runs].
`Cn1nccc1Nc1nccc(-c2ccn(C(CO)c3ccc(Cl)c(F)c3)c(=O)c2)n1` (stereo not given): the viability, T/C was 93.7% [middle of 4 runs] (compound 0.0316 µM); 86.5% [middle of 4 runs] (compound 0.1 µM); 87.2% [middle of 4 runs] (compound 0.316 µM); 79.5% [middle of 4 runs] (compound 1 µM); 65.8% [middle of 4 runs] (compound 3.16 µM); 58.5% [middle of 4 runs] (compound 10 µM). Also, for the setting “curve of compound”, the half-inhibitory concentration (IC50) is > 10 µM and 8.22 µM.
Regarding `Cn1ncnc1[C@H]1c2n[nH]c(=O)c3cc(F)cc(c23)N[C@@H]1c1ccc(F)cc1`, the viability, T/C was 92.5% [middle of 4 runs] (compound 0.000316 µM); 88.8% (2×) and 83.1% and 89.6% (compound 0.001 µM); 91.6% [middle of 4 runs] (compound 0.00316 µM); 84.4% [middle of 4 runs] (compound 0.01 µM); 75.7% [middle of 4 runs] (compound 0.0316 µM); 58.2% [middle of 4 runs] (compound 0.1 µM). Also, the IC50 (curve of compound) was > 0.1 µM.
